Source: article PMC8405607 (British Journal of Cancer, 2021)
Read-outs that look alike come from different tables or passages of the source.

Experiment: phase I clinical plasma pharmacokinetics (noncompartmental); Reg 1: 3qw continuous; Reg 3: 3qw 2 weeks on/1 week off
Type: in vivo, human
Details: for AUC(0-t): read-out: AUClast, Mean (SD); for Cmax: read-out: Cmax, Mean (SD)
Experimental: Antitumor efficacy was assessed using computerised tomography (CT)/magnetic resonance imaging assessment at baseline and every 8 weeks until disease progression or the initiation of subsequent antineoplastic therapy or death, whichever occurred first. In addition, the criteria for determining confirmed partial response (PR) or complete response (CR) were required to be present for at least 4 weeks. Demographic and other baseline data and PK/PD parameters were summarised using descriptive statistics.[11] PK parameters were estimated using noncompartmental methods (Phoenix®, Pharsight, Mountain View, California, USA).

[1] = human, plasma, oral, 300 mg, 300 mg Reg.3, Cycle 1 Day 12, n 6
[2] = human, plasma, oral, 500 mg, 500 mg Reg.3, Cycle 1 Day 12, n 5

COc1cc2c(cc1OC(C)C)[C@H](c1ccc(Cl)cc1)N(c1ccc(N(C)C[C@H]3CC[C@H](N4CCN(C)C(=O)C4)CC3)cc1)C(=O)C2 [CGM097]
dose proportionality of AUClast and Cmax (10–700 mg, single and repeated doses): no major deviation from dose proportionality | AUC(0-t) (human, plasma, oral, 10 mg, 10 mg Reg.1, Cycle 1 Day 1, n 3, Tlast=24h): 1740 ng·h/mL | Cmax (human, plasma, oral, 10 mg, 10 mg Reg.1, Cycle 1 Day 1, n 3): 162 ng/mL | AUC(0-t) (human, plasma, oral, 10 mg, 10 mg Reg.1, Cycle 1 Day 8, n 3, Tlast=8h): 749 ng·h/mL | Cmax (human, plasma, oral, 10 mg, 10 mg Reg.1, Cycle 1 Day 8, n 3): 135 ng/mL | AUC(0-t) (human, plasma, oral, 10 mg, 10 mg Reg.1, Cycle 2 Day 1, n 3, Tlast=8h): 855 ng·h/mL | Cmax (human, plasma, oral, 10 mg, 10 mg Reg.1, Cycle 2 Day 1, n 3): 151 ng/mL | AUC(0-t) (human, plasma, oral, 20 mg, 20 mg Reg.1, Cycle 1 Day 1, n 4, Tlast=24h): 3640 ng·h/mL | Cmax (human, plasma, oral, 20 mg, 20 mg Reg.1, Cycle 1 Day 1, n 4): 226 ng/mL | AUC(0-t) (human, plasma, oral, 20 mg, 20 mg Reg.1, Cycle 1 Day 8, n 3, Tlast=8h): 1900 ng·h/mL | Cmax (human, plasma, oral, 20 mg, 20 mg Reg.1, Cycle 1 Day 8, n 4): 292 ng/mL | AUC(0-t) (human, plasma, oral, 20 mg, 20 mg Reg.1, Cycle 2 Day 1, n 2, Tlast=8h): 2470 ng·h/mL | Cmax (human, plasma, oral, 20 mg, 20 mg Reg.1, Cycle 2 Day 1, n 2): 417 ng/mL | AUC(0-t) (human, plasma, oral, 40 mg, 40 mg Reg.1, Cycle 1 Day 1, n 4, Tlast=24h): 8640 ng·h/mL | Cmax (human, plasma, oral, 40 mg, 40 mg Reg.1, Cycle 1 Day 1, n 4): 648 ng/mL | AUC(0-t) (human, plasma, oral, 40 mg, 40 mg Reg.1, Cycle 1 Day 8, n 1, Tlast=8h): 4560 ng·h/mL | Cmax (human, plasma, oral, 40 mg, 40 mg Reg.1, Cycle 1 Day 8, n 2): 776 ng/mL | AUC(0-t) (human, plasma, oral, 40 mg, 40 mg Reg.1, Cycle 2 Day 1, n 3, Tlast=8h): 4410 ng·h/mL | Cmax (human, plasma, oral, 40 mg, 40 mg Reg.1, Cycle 2 Day 1, n 3): 780 ng/mL | AUC(0-t) (human, plasma, oral, 80 mg, 80 mg Reg.1, Cycle 1 Day 1, n 4, Tlast=24h): 25800 ng·h/mL | Cmax (human, plasma, oral, 80 mg, 80 mg Reg.1, Cycle 1 Day 1, n 4): 1700 ng/mL | AUC(0-t) (human, plasma, oral, 80 mg, 80 mg Reg.1, Cycle 1 Day 8, n 4, Tlast=8h): 12600 ng·h/mL | Cmax (human, plasma, oral, 80 mg, 80 mg Reg.1, Cycle 1 Day 8, n 4): 1990 ng/mL | AUC(0-t) (human, plasma, oral, 80 mg, 80 mg Reg.1, Cycle 2 Day 1, n 3, Tlast=8h): 13800 ng·h/mL | Cmax (human, plasma, oral, 80 mg, 80 mg Reg.1, Cycle 2 Day 1, n 3): 2150 ng/mL | AUC(0-t) (human, plasma, oral, 150 mg, 150 mg Reg.1, Cycle 1 Day 1, n 4, Tlast=24h): 28400 ng·h/mL | Cmax (human, plasma, oral, 150 mg, 150 mg Reg.1, Cycle 1 Day 1, n 4): 2170 ng/mL | AUC(0-t) (human, plasma, oral, 150 mg, 150 mg Reg.1, Cycle 1 Day 8, n 3, Tlast=8h): 19300 ng·h/mL | Cmax (human, plasma, oral, 150 mg, 150 mg Reg.1, Cycle 1 Day 8, n 3): 3280 ng/mL | AUC(0-t) (human, plasma, oral, 150 mg, 150 mg Reg.1, Cycle 2 Day 1, n 4, Tlast=8h): 18400 ng·h/mL | Cmax (human, plasma, oral, 150 mg, 150 mg Reg.1, Cycle 2 Day 1, n 4): 2840 ng/mL | AUC(0-t) (human, plasma, oral, 300 mg, 300 mg Reg.1, Cycle 1 Day 1, n 7, Tlast=24h): 76100 ng·h/mL | Cmax (human, plasma, oral, 300 mg, 300 mg Reg.1, Cycle 1 Day 1, n 7): 5640 ng/mL | AUC(0-t) (human, plasma, oral, 300 mg, 300 mg Reg.1, Cycle 1 Day 8, n 5, Tlast=8h): 48400 ng·h/mL | Cmax (human, plasma, oral, 300 mg, 300 mg Reg.1, Cycle 1 Day 8, n 5): 7570 ng/mL | AUC(0-t) (human, plasma, oral, 300 mg, 300 mg Reg.1, Cycle 2 Day 1, n 4, Tlast=8h): 52400 ng·h/mL | Cmax (human, plasma, oral, 300 mg, 300 mg Reg.1, Cycle 2 Day 1, n 4): 8020 ng/mL | AUC(0-t) (human, plasma, oral, 300 mg, 300 mg Reg.3, Cycle 1 Day 1, n 6, Tlast=24h): 44300 ng·h/mL | Cmax (human, plasma, oral, 300 mg, 300 mg Reg.3, Cycle 1 Day 1, n 6): 3060 ng/mL | AUC(0-t) (human, plasma, oral, 300 mg, 300 mg Reg.3, Cycle 1 Day 8, n 6, Tlast=8h): 24500 ng·h/mL | Cmax (human, plasma, oral, 300 mg, 300 mg Reg.3, Cycle 1 Day 8, n 6): 3910 ng/mL | AUC(0-t) [1]: 166000 ng·h/mL | Cmax [1]: 4380 ng/mL | AUC(0-t) (human, plasma, oral, 300 mg, 300 mg Reg.3, Cycle 2 Day 1, n 4, Tlast=8h): 16400 ng·h/mL | Cmax (human, plasma, oral, 300 mg, 300 mg Reg.3, Cycle 2 Day 1, n 5): 2710 ng/mL | AUC(0-t) (human, plasma, oral, 400 mg, 400 mg Reg.1, Cycle 1 Day 1, n 4, Tlast=24h): 83600 ng·h/mL | Cmax (human, plasma, oral, 400 mg, 400 mg Reg.1, Cycle 1 Day 1, n 5): 4710 ng/mL | AUC(0-t) (human, plasma, oral, 400 mg, 400 mg Reg.1, Cycle 1 Day 8, n 3, Tlast=8h): 42900 ng·h/mL | Cmax (human, plasma, oral, 400 mg, 400 mg Reg.1, Cycle 1 Day 8, n 3): 6700 ng/mL | AUC(0-t) (human, plasma, oral, 400 mg, 400 mg Reg.1, Cycle 2 Day 1, n 5, Tlast=8h): 46800 ng·h/mL | Cmax (human, plasma, oral, 400 mg, 400 mg Reg.1, Cycle 2 Day 1, n 5): 6960 ng/mL | AUC(0-t) (human, plasma, oral, 500 mg, 500 mg Reg.3, Cycle 1 Day 1, n 6, Tlast=24h): 76100 ng·h/mL | Cmax (human, plasma, oral, 500 mg, 500 mg Reg.3, Cycle 1 Day 1, n 6): 4640 ng/mL | AUC(0-t) (human, plasma, oral, 500 mg, 500 mg Reg.3, Cycle 1 Day 8, n 4, Tlast=8h): 41800 ng·h/mL | Cmax (human, plasma, oral, 500 mg, 500 mg Reg.3, Cycle 1 Day 8, n 6): 7540 ng/mL | AUC(0-t) [2]: 503000 ng·h/mL | Cmax [2]: 10700 ng/mL | AUC(0-t) (human, plasma, oral, 500 mg, 500 mg Reg.3, Cycle 2 Day 1, n 6, Tlast=8h): 26800 ng·h/mL | Cmax (human, plasma, oral, 500 mg, 500 mg Reg.3, Cycle 2 Day 1, n 6): 4810 ng/mL | AUC(0-t) (human, plasma, oral, 700 mg, 700 mg Reg.3, Cycle 1 Day 1, n 5, Tlast=24h): 79100 ng·h/mL | Cmax (human, plasma, oral, 700 mg, 700 mg Reg.3, Cycle 1 Day 1, n 5): 5590 ng/mL | AUC(0-t) (human, plasma, oral, 700 mg, 700 mg Reg.3, Cycle 1 Day 8, n 4, Tlast=8h): 58200 ng·h/mL | Cmax (human, plasma, oral, 700 mg, 700 mg Reg.3, Cycle 1 Day 8, n 4): 9570 ng/mL | AUC(0-t) (human, plasma, oral, 700 mg, 700 mg Reg.3, Cycle 1 Day 12, n 2): 237000 ng·h/mL | Cmax (human, plasma, oral, 700 mg, 700 mg Reg.3, Cycle 1 Day 12, n 3): 9240 ng/mL | AUC(0-t) (human, plasma, oral, 700 mg, 700 mg Reg.3, Cycle 2 Day 1, n 4, Tlast=8h): 35800 ng·h/mL | Cmax (human, plasma, oral, 700 mg, 700 mg Reg.3, Cycle 2 Day 1, n 4): 5860 ng/mL | Tmax (human, plasma, oral, fasted state, across dose groups, read-out: median Tmax): 1.6 to 4.17 h
